The record followed here is patent US20130252890A1, “6,7-DIHYDRO-5H-BENZO[7]ANNULENE DERIVATIVES, PROCESS FOR PREPARATION THEREOF, PHARMACEUTICAL PREPARATIONS COMPRISING THEM, AND THE USE THEREOF FOR PRODUCTION OF MEDICAMENTS” (BAYER INTELLECTUAL PROPERTY GMBH, priority 2010, published 2013).

One series deals with T1, ERα protein (Homo sapiens, UniProt P03372).
T1 construct: These cells express the ER in functional form; endogenous in cells; host or cells: T47D breast cancer cells
T1 sequence (P03372 1-595): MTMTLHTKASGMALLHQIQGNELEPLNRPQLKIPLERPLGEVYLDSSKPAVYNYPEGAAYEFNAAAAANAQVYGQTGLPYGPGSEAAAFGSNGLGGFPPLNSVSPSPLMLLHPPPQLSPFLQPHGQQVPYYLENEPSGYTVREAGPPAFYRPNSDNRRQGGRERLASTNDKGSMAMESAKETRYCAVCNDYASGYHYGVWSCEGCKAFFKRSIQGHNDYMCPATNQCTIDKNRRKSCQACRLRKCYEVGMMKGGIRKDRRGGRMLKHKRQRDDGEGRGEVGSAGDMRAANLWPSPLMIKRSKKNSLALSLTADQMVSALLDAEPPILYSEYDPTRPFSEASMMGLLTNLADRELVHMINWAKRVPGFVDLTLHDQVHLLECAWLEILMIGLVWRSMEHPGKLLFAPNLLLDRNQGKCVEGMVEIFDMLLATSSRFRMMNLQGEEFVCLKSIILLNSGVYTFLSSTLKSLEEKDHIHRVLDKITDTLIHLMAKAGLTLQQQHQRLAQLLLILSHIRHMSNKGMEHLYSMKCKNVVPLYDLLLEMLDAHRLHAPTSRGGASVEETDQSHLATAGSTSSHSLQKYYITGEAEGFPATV
In words: Effect on stability of ERα protein in T47D breast cancer cells (ELISA). Particulars: 24 hours, ER protein by ELISA. The class given is cell-based. How it is done: As well as inhibition of the transcriptional activity of the ER, anti-oestrogens influence the expression level of the ER in the target tissues through stimulation of the proteolytic degradation of the ER. In comparison with an ER-E2 complex, the ER bound in a complex with the pure anti-oestrogen fulvestrant has a substantially shorter half-life.
The effect of the claimed pharmacological compounds on the stability of the ER was analysed in T47D breast cancer cells (see Table 1, column Standardized ER-destabilization [%]). These cells express the ER in functional form. The cells are incubated for 24 hours with the claimed compounds at a concentration of 1 μM. After lysis of the cells, the content of ER protein was determined by ELISA. […] Compounds with ER content below 30% are classified as destabilizing.
As described, the claimed pharmacological substances were investigated for their action on the stability of the ERα protein (see Table 1).

For another series, the system named is uterus. Description: Oestrogenic action - uterus growth test in the infantile rat. The class given is in vivo. The settings on record: sc, 72 h, s.c. 3 days, maximum at dose 0.03 mg/kg, relative to E2 0.3 μg/animal, read-out: maximum uterotropic action (% estradiol action) in the dose range from 0.03 to 3 mg/kg. How it is done:
Both the uterus and the vagina show a weight increase that is dependent on oestrogenic efficacy, in infantile animals when they are treated with a substance with oestrogenic action. In the uterus, under oestrogenic action there is also proliferation and increase in height of the luminal epithelium.
Immature, intact rats (n=5-6 animals/group; body weight 40-50 g) receive the substance s.c. for 3 days (d1-d3). On day 4 (d4) the animals are killed with CO2. The uteri are removed and weighed. For histological assessment, a piece of uterus, preferably a uterine horn, is fixed in formaldehyde and embedded in paraffin. The stimulation of the organ weights (relative to mg/100 g body weight) and the height of the epithelium are shown as percentage stimulation in comparison with the reference compound 17β-estradiol (E2). (Substitution dose of E2 0.3 μg/animal).

In series [1] the test system is peripheral cholesterol level. In words: Hepatic oestrogenicity in the ovariectomized adult rat (plasma cholesterol). The class given is in vivo. The settings on record: ovariectomized adult rats, s.c. daily for 6 days; cholesterol day 0 vs day 8. From the text:
Substances with oestrogenic action influence the synthesis of various plasma proteins, of coagulation factors and fibrinolytic factors in the liver. […] In the present investigations, lowering of the peripheral cholesterol level is used as a surrogate parameter for analysis of the hepatic oestrogenicity of the claimed pharmacological compounds. Adult ovariectomized rats were, after a pause of 6-10 days, treated daily for 6 days with the substances by subcutaneous application. The plasma cholesterol levels were determined and compared before and after the respective treatment.

For series [2], the system named is trabecular bone density and uterus weight. The class given is in vivo, rat. The settings on record: adult ovariectomized rats, 56 days; compound 44 oral 1-10 mg/kg, effect already beginning with 1 mg/kg. How it is done:
3-months-old female rats are ovariectomized and immediately after the operation they are treated with the test compound once daily for 56 days. Application is oral in peanut oil/ethanol. The animals are killed on the day after the last application and the tibia and the uteri are removed. The uteri are weighed, fixed and prepared for histological investigations. Bone density is determined ex vivo on prepared long bones by pQCT (peripheral quantitative computed tomography).
Ovariectomy leads to a decrease in density of the trabecular bone in the measured region. By treatment with a compound of general formula I according to the present invention (dosages of 1-10 mg/kg/day) the decline in bone density is prevented or inhibited. Bone density was measured on the proximal tibia.
The bone-protective action in adult ovariectomized female animals (rat) was investigated as described. […] The selected claimed pharmacological example compound 44 was applied orally at dosages from 1-10 mg/kg.

“Also recorded” adds a separate entry of the source.

On to `C[C@]12CC[C@@H]3c4ccc(O)cc4C[C@@H](CCCCCCCCC[S+]([O-])CCCC(F)(F)C(F)(F)F)[C@H]3[C@@H]1CC[C@@H]2O` (stereo partly shown) [fulvestrant, reference compound], for which the “relative ERα content (% ER)” value at ERα protein is listed as 0%.

Take `O=C(c1ccc(OCCN2CCCCC2)cc1)c1c(-c2ccc(O)cc2)sc2cc(O)ccc12` [raloxifene, reference compound]: in the series with uterus, the Emax at 0.03 mg/kg was 18%. Also, the “hepatic oestrogenicity: lowering of the peripheral cholesterol level” value in series [1] is reported as “hepatic oestrogenicity at all dosages tested; also recorded: marked lowering of the cholesterol level at all dosages”. The “bone-protective action (trabecular bone mass density, tibia)” value in series [2] is “marked bone protective action”.
